The source of these data is patent EP1184374A1, “Carboxamide derivatives of pyrrolidine, piperidine and hexahydroazepine for the treatment of thrombosis disorders” (ORTHO PHARMACEUTICAL CORPORATION, priority 1996, dated 1997).

One assay relates to platelet aggregation. Conditions: L. Alig, J. Med. Chem. 1992, 35, 4393; read-out: IC50 against in vitro thrombin-induced platelet aggregation; cited from earlier work.
For the next assay, the target named is GPIIb/IIIa (Homo sapiens, UniProt P05106+P08514). The assay can be described thus: In vitro solid phase purified glycoprotein IIb/IIIa binding assay (biotinylated fibrinogen binding). Conditions: for inhibition at 50 µM: read-out: Fibrinogen Binding % Inh. (50 µM). Here is the method: IN VITRO SOLID PHASE PURIFIED GLYCOPROTEIN IIB/IIIA BINDING ASSAY.
The plate is covered and incubated overnight at 4°C. The GPIIb/IIa solution is discarded and 150 µl of 5% BSA is added and incubated at RT for 1-3 h. The plate is washed extensively with modified Tyrodes buffer. Biotinylated fibrinogen (25 µl/well) at 2 x final concentration is added to the wells that contain the test compounds (25 µl/well). The plate is covered and incubated at RT for 2-4 h. Twenty minutes prior to incubation completion, one drop of Reagent A (Vecta Stain ABC Horse Radish Peroxidase kit, Vector Laboratories, Inc.) and one drop Reagent B are added with mixing to 5 mL modified Tyrodes buffer mix and let stand. The ligand solution is discarded and the plate washed (5 x 200 µl/well) with modified Tyrodes buffer. Vecta Stain HRP-Biotin-Avidin reagent (50 µl/well, as prepared above) is added and incubated at RT for 15 min. The Vecta Stain solution is discarded and the wells washed (5 x 200 µl/well) with modified Tyrodes buffer. Developing buffer (10 mL of 50 mM citrate/phosphate buffer @ pH 5.3, 6 mg o-phenylenediamine, 6 µl 30% H2O2; 50 µl/well) is added and incubated at RT for 3-5 min, and then 2N H2SO4 (50 µl/well) is added. The absorbance is read at 490 nm.

The test system of a further assay is gel-filtered platelets. Put plainly: In vitro inhibition of thrombin-induced gel-filtered platelet aggregation. It counts as cell-based. Conditions: Homo sapiens; for inhibition at 50 µM: read-out: Platelet Aggregation % Inh. (50µM). The protocol: IN VITRO INHIBITION OF THROMBIN-INDUCED GEL-FILTERED PLATELET AGGREGATION ASSAY.
The percentage of platelet aggregation is calculated as an increase in light transmission of compound-treated platelet concentrate vs. control-treated platelet concentrate. Human blood is obtained from drug free, normal donors into tubes containing 0.13M sodium citrate. Platelet rich plasma (PRP) is collected by centrifugation of whole blood at 200 x g for 10 min at 25°C. The PRP (5 mL) is gel filtered through Sepharose 2B (bed volume 50 mL), and the platelet count is adjusted to 2x10^7 platelets per sample. The following constituents are added to a siliconized cuvette: concentrated platelet filtrate and Tyrode's buffer (0.14M NaCl, 0.0027MKCl, 0.012M NaHCO3, 0.76 mM Na2HPO4, 0.0055M glucose, 2 mg/mL BSA and 5.0mM HEPES @ pH 7.4) in an amount equal to 350 µl, 50 µl of 20 mM calcium and 50 µl of the test compound. Aggregation is monitored in a BIODATA aggregometer for the 3 min following the addition of agonist (thrombin 50 µl of 1 unit/mL).

Assay [1] concerns collagen- or ADP-induced ex vivo platelet aggregation. Put plainly: Ex vivo dog study (platelet aggregation, hemodynamics, bleeding time, coagulation, cell counts). It counts as in vivo, dogs. Here is the method:
Adult mongrel dogs (8-13 kg) were anesthetized with sodium pentobarbital (35 mg/kg, i.v.) and artificially respired. Arterial blood pressure and heart rate were measured using a Millar catheter-tip pressure transducer inserted in a femoral artery. Another Millar transducer was placed in the left ventricle (LV) via a carotid artery to measure LV end diastolic pressure and indices of myocardial contractility. A lead II electrocardiogram was recorded from limb electrodes. Catheters were placed in a femoral artery and vein to sample blood and infuse drugs, respectively. Responses were continuously monitored using a Modular Instruments data aquisition system.
Arterial blood samples (5-9 ml) were withdrawn into tubes containing 3.8% sodium citrate to prepare platelet rich plasma (PRP) and to determine effects on coagulation parameters: prothrombin time (PT) and activated partial thromboplastin time (APTT). Separate blood samples (1.5 ml) were withdrawn in EDTA to determine hematocrit and cell counts (platelets, RBC's and white cells). Template bleeding times were obtained from the buccal surface using a symplate incision devise and Whatman filter paper.
Aggregation of PRP was performed using a BioData aggregometer. Aggregation of whole blood used a Chronolog impedance aggregometer. PT and APTT were determined on either a BioData or ACL 3000+ coagulation analyser. Cells were counted with a Sysmex K-1000.
Compounds were solubilized in a small volume of dimethylformamide (DMF) and diluted with saline to a final concentration of 10% DMF. Compounds were administered by the intravenous route with a Harvard infusion pump. Doses was administered over a 15 min interval at a constant rate of 0.33 ml/min. Data were obtained after each dose and in 30 min intervals following the end of drug administration. Oral doses were administered as aqueous solutions via syringe.

For a further assay, the system named is thrombus formation. Put plainly: Canine arteriovenous shunt model of thrombosis. Type of assay: in vivo. The protocol:
For instance, compound 16 inhibits thrombus formation at 10, 30, and 100 µg/kg/min cumulative doses by iv infusion (75%, 37%, 12% of thrombus weight vs. vehicle control, respectively). Compound 18 inhibits thrombus formation at 3, 10, and 30 µg/kg/min cumulative doses by iv infusion (82%, 41%, 12% of thrombus weight vs. vehicle control, respectively).

Where [2] appears, read: 10 µg/kg/min cumulative dose by iv infusion.
The mark [3] stands for this setting: 30 µg/kg/min cumulative dose by iv infusion.

Bounds are passed on as bounds.

GPIIb/IIIa, sequence (P08514 32-887 limits assumed): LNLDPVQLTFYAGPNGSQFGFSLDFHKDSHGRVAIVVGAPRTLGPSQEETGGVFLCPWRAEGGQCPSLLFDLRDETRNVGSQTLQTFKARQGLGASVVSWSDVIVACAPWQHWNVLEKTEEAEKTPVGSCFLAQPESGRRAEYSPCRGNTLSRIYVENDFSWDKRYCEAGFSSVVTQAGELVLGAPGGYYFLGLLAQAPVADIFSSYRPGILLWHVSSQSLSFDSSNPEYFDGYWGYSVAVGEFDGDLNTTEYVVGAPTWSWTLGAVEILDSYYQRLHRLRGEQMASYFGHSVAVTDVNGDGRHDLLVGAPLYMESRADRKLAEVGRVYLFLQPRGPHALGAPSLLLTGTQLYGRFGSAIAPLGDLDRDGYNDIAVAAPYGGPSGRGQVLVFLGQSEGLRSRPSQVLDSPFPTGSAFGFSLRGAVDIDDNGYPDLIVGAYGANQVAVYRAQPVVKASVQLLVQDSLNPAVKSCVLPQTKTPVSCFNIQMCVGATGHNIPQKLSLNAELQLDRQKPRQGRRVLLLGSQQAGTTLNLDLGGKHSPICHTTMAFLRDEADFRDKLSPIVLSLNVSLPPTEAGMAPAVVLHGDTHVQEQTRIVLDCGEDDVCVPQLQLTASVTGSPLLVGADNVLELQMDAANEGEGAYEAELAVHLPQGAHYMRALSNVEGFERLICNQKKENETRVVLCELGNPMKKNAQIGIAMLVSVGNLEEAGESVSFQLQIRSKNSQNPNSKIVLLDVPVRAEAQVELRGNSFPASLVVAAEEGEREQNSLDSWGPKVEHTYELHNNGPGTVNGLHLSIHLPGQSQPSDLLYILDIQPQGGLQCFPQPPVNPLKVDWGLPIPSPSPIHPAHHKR
GPIIb/IIIa, sequence (P08514 891-1039 partner limits assumed): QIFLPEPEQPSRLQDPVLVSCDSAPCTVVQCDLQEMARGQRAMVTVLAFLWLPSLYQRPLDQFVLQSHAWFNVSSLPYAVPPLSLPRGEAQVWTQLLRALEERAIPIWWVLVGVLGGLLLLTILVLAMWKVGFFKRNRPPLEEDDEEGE
GPIIb/IIIa, sequence (P05106 27-788): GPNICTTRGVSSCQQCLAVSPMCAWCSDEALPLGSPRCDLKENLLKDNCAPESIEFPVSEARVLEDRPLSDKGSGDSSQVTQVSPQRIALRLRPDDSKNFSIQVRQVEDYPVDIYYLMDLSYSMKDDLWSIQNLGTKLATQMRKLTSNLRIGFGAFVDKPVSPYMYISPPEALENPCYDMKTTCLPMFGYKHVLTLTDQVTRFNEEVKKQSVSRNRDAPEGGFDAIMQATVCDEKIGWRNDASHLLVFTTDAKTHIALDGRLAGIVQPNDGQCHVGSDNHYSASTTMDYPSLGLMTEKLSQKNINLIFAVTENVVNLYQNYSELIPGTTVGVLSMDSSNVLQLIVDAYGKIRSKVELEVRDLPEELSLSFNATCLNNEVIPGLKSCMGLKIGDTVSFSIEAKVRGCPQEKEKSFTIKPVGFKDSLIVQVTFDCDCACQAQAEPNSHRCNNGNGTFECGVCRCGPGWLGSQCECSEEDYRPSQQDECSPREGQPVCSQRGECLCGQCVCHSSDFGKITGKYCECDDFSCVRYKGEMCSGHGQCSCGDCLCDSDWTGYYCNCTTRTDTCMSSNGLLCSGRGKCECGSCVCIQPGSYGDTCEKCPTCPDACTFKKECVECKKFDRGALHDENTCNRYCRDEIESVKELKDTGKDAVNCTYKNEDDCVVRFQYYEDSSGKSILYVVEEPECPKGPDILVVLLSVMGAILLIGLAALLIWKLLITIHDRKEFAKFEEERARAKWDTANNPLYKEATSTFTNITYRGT

With `CN(CC(=O)c1ccc(OCC(=O)O)c(OCC(=O)O)c1)C(=O)c1ccc(C(=N)N)cc1` [Ro-438857], in the assay with platelet aggregation, the concentration for half-maximal inhibition (IC50) was 94 nM.
Consider `O=C(O)C[C@H](NC(=O)[C@@H]1CCCN(C(=O)CCC2CCNCC2)C1)c1cnc2ccccc2c1` [Compound 18, N-3-(4-Piperidinepropionyl)-R-(-)-nipecotyl-[(S)-3-amino-3-(3-quinolinyl)]propionic acid], for which the inhibition at 50 µM on GPIIb/IIIa and in the assay on gel-filtered platelets was 100% in each case. In the assay on gel-filtered platelets, this compound yielded an IC50 of 19 nM. In addition, the “Duration of >50% inhibition of collagen- or ADP-induced ex vivo platelet aggregation” value is given as 30 min in assay [1] (intravenous dosing 0.1 mpk) and 150 min in assay [1] (oral dosing 1 mpk). Further, the entries for the “% of thrombus weight vs. vehicle control” value in the assay on thrombus formation (3 µg/kg/min cumulative dose by iv infusion), in the assay on thrombus formation (setting [2]) and in the assay on thrombus formation (setting [3]) were 82%, 41% and 12%, respectively.
For the compound `O=C(O)CC(NC(=O)C1CCCN(C(=O)CCC2CCNCC2)C1)c1ccc2c(c1)OCO2` [Compound 16, N-3-(4-Piperidinepropionyl)-R-(-)-nipecotyl-[(S)-3-amino-3-(3,4-methylenedioxyphenyl)]propionic acid], the 50% inhibitory concentration (IC50) came out at 0.5 nM at GPIIb/IIIa and 28 nM in the assay with gel-filtered platelets. In addition, the inhibition at 50 µM on GPIIb/IIIa came to 100%; with gel-filtered platelets it was 94%. In addition, the results for the “Duration of >50% inhibition of collagen- or ADP-induced ex vivo platelet aggregation” value in assay [1] (intravenous dosing 0.1 mpk), in assay [1] (oral dosing 1 mpk) and in assay [1] (oral dosing 3 mpk) were 60 min, 60 min and >180 min, respectively. Besides, the “% of thrombus weight vs. vehicle control” value in the assay with thrombus formation (setting [2]) came out at 75%; in the assay with thrombus formation (setting [3]), 37%; with thrombus formation (100 µg/kg/min cumulative dose by iv infusion) it was 12%.

By IC50 is commonly meant the concentration that inhibits the measured activity by half.
